Several values for one entry are separate records, joined by “and”; a condition that tells them apart may be missing. Equal entries are not always repeated.
Tests used:
DAOY cells = test: Viability assay (Presto Blue), DAOY; format: cell-based; details: Homo sapiens, dose-response 1nM to 10μM
MON cells = test: Viability assay (Presto Blue), MON; format: cell-based; details: Homo sapiens, dose-response 1nM to 10μM
Procedure: (§1) Except DAOY and D283, all cell lines were plated with 2 x 10^3 cells per well 96-well and the absorbance was measured after 48 and 72 hours at drug concentrations of 5, 10, 50, 100, 200, 500nM, 1μM and 5μM.

various kinases [1] = biological target: various kinases (Homo sapiens, UniProt P11802); test: Adapta Universal Kinase Assay, panel of 486 biochemical kinase assays
various kinases (Homo sapiens, UniProt P11802), sequence (P11802 whole entry): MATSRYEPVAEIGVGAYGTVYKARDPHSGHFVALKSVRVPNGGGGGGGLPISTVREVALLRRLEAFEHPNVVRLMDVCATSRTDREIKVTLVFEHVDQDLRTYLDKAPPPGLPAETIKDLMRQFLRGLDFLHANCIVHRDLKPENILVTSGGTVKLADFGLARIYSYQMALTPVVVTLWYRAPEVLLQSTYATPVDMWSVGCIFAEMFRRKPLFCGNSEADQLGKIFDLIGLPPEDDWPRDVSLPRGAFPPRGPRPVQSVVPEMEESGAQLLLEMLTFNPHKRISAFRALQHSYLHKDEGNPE

various kinases [2] = biological target: various kinases (Homo sapiens, UniProt Q9BTU6); test: as above; details: PI4K2A (PI4K2 alpha)
various kinases [3] = biological target: various kinases (Homo sapiens, UniProt P42336); test: as above
various kinases (Homo sapiens, UniProt P42336), sequence (P42336 whole entry): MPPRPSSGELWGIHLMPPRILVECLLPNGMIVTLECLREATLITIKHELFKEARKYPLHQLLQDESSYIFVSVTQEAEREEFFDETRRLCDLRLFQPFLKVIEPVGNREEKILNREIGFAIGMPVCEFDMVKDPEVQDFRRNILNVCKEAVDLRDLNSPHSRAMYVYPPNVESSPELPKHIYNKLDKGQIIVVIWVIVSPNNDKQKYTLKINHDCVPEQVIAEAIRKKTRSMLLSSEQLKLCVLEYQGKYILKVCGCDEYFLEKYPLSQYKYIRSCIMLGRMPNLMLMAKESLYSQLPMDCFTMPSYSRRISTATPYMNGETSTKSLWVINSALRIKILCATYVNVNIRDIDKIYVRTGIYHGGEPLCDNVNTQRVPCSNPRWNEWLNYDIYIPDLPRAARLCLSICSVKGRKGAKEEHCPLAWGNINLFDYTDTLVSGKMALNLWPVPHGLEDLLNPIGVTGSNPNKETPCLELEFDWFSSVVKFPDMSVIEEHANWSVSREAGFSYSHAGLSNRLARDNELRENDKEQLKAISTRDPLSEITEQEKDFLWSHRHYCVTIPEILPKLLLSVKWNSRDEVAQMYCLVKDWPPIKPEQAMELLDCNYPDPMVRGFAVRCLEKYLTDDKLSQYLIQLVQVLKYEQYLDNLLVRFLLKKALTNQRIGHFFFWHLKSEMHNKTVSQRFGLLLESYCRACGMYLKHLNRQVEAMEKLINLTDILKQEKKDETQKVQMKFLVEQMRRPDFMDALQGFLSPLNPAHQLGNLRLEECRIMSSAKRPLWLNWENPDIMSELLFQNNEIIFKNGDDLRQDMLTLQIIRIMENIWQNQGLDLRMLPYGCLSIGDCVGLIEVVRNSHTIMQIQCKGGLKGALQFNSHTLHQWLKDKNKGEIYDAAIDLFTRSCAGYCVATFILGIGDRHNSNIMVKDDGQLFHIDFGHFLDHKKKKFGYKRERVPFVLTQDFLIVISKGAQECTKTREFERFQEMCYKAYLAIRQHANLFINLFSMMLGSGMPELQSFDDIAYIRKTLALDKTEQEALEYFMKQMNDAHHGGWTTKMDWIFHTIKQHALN

various kinases [4] = biological target: various kinases (Homo sapiens, UniProt Q14012); test: as above; details: CAMK1 (CaMK1)
various kinases [5] = biological target: various kinases (Homo sapiens, UniProt O15111); test: as above; details: CHUK (IKK alpha)
various kinases [6] = biological target: various kinases (Homo sapiens, UniProt P42336, E542K); test: as above; details: PIK3CA E542K/PIK3R1 (p110 alpha E542K/p85 alpha)
various kinases (Homo sapiens, UniProt P42336, E542K), sequence (P42336 whole entry E542K): as the sequence (P42336 whole entry) above, with E542K counted along it

various kinases [7] = biological target: various kinases (Homo sapiens, UniProt P48736); test: as above; details: PIK3CG (p110 gamma)
various kinases (Homo sapiens, UniProt P48736), sequence (P48736 whole entry): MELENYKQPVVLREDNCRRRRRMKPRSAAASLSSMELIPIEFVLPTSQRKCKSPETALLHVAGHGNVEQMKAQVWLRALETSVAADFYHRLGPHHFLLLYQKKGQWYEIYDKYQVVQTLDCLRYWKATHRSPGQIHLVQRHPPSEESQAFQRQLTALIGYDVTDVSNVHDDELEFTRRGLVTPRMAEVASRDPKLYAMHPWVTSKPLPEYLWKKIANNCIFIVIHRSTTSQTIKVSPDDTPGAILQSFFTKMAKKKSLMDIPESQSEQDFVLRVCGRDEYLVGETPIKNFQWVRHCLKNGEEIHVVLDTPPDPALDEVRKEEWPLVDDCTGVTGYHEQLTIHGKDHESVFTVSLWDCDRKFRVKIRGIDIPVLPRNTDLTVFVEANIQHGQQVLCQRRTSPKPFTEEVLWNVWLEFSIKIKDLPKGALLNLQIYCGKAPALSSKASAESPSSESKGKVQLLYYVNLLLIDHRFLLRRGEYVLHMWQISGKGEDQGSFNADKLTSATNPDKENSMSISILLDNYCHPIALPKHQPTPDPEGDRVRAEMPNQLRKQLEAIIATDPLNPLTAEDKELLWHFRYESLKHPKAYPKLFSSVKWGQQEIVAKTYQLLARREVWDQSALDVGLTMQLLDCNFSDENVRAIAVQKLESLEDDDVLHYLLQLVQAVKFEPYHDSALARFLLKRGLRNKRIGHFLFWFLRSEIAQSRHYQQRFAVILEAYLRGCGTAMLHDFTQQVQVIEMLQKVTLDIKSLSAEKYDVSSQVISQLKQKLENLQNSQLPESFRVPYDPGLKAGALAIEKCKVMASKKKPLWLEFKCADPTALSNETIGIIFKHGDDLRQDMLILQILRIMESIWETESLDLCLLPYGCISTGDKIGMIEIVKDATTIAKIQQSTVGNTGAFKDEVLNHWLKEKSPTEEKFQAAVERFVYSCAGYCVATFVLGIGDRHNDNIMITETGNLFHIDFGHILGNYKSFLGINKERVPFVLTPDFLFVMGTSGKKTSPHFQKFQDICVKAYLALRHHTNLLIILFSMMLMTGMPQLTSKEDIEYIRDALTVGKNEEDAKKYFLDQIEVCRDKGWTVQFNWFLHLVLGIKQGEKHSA

various kinases [8] = biological target: various kinases (Homo sapiens, UniProt O00329); test: as above; details: PIK3CD/PIK3R1 (p110 delta/p85 alpha)
various kinases [9] = biological target: various kinases (Homo sapiens, UniProt Q5S007, G2019S); test: as above
various kinases (Homo sapiens, UniProt Q5S007, G2019S), sequence (Q5S007 whole entry G2019S): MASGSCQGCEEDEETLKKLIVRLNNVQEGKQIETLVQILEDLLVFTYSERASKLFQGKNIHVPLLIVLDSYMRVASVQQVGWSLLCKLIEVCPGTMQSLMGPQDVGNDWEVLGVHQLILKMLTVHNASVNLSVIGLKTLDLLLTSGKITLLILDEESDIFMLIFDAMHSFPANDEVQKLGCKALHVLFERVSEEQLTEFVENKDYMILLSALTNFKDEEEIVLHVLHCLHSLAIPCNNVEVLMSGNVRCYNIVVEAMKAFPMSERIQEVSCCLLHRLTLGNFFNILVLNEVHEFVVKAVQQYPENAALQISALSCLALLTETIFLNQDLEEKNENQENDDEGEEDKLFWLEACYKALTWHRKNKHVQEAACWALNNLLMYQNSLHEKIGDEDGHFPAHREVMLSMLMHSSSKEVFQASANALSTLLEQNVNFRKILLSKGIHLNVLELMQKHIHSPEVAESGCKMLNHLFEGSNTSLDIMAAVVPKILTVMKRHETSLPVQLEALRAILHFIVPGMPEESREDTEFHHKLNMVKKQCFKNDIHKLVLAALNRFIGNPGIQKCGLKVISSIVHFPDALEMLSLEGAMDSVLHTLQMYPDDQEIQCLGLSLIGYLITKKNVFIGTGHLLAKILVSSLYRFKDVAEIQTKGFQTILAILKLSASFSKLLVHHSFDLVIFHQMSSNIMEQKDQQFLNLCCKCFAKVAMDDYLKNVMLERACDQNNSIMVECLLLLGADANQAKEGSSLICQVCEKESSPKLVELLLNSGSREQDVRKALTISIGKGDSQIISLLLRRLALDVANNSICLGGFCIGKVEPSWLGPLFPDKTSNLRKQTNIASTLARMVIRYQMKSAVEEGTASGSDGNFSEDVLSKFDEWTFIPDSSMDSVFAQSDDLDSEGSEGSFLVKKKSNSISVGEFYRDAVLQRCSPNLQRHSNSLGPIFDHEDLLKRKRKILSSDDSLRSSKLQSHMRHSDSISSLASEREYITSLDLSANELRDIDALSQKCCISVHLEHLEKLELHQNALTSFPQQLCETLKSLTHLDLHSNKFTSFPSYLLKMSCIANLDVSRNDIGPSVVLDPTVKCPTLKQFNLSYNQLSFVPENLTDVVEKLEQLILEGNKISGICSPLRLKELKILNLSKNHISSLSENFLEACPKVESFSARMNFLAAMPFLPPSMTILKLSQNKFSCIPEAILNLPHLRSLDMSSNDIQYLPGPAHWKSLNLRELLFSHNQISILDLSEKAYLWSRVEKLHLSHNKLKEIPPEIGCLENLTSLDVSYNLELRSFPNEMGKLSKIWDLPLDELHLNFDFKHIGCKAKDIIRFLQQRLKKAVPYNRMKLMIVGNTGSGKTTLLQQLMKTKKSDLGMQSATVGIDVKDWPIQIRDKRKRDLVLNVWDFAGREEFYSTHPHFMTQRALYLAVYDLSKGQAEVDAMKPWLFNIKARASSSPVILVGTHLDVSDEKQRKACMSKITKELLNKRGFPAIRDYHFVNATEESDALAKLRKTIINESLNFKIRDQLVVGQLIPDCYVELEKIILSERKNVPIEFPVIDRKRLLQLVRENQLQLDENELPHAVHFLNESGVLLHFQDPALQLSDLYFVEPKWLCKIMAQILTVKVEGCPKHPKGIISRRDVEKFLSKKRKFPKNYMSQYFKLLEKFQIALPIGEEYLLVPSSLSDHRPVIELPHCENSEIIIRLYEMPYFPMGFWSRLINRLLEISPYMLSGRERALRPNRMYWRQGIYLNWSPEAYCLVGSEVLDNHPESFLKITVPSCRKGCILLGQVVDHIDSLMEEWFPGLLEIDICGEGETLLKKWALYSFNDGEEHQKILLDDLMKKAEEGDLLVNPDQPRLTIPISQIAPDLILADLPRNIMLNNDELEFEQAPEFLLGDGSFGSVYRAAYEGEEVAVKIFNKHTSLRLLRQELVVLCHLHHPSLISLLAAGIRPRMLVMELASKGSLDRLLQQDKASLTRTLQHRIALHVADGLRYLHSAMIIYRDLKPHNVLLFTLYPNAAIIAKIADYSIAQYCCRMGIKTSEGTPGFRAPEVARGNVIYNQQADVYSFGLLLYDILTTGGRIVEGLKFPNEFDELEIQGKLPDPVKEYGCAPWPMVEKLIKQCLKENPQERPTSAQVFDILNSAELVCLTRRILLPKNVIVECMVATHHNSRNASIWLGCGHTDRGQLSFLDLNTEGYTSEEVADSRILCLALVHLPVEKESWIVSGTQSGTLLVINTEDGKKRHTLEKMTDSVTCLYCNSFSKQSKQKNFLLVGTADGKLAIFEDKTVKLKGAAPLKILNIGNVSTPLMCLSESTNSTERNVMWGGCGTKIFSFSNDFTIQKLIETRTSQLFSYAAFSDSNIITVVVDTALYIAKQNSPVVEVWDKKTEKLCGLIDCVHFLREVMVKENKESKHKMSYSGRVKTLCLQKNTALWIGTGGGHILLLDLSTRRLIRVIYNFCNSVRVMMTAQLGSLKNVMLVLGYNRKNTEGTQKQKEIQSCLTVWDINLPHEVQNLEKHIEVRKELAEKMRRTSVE

various kinases [10] = biological target: various kinases (Homo sapiens, UniProt P42356); test: as above; details: PI4KA (PI4K alpha)
[11] = test system: BT-12 AT/RT orthotopic xenografts; test: Intracranial AT/RT xenograft tumors; format: in vivo, athymic mice
Source text: Six-week-old female athymic mice (rnu/rnu genotype, BALB/c background) were purchased from Envigo (Harlan) and housed under aseptic conditions, which included filtered air and sterilized food, water, bedding, and cages. The Northwestern University Institutional Animal Care and Use Committee approved all animal protocols. The BT-12 AT/RT cell line, which has high expression of PLK4 was modified to express luciferase and injected intracranially in nude mice as previously described. Each mouse was injected with a cell suspension (10,000 cells/3μL) into the right caudate putamen of the brain. […] Bioluminescence monitoring was performed twice a week throughout the course of the experiment for quantitative measurement of tumor growth and response to therapy. Kaplan-Meier survival analysis was performed to assess survival benefit within the treatment group as compared to controls. Differences between survival curves were calculated using a log-rank test. Brains were resected at 6 hours following completion of the treatment and placed in 4% paraformaldehyde for subsequent histological examination.

MUSK = MUSK (Homo sapiens, UniProt O15146); test: Kinase activity screening (SelectScreen), MUSK; format: biochemical; details: 10-point titration
[12] = Brain to plasma ratio (B:P), LC-MS/MS; format: in vivo, male CD-1 mice; details: male, CD-1, mouse, po, 7.5 mg/kg, 4 hours post-dose
Procedure: Male CD-1 mice weighing between 20 and 40 grams were fitted with jugular vein cannulas as appropriate and fasted overnight until 4 hours post-dose. Double route of administration (oral and IV) were tested, with a single dose concentration of 7.5mg/kg. Plasma and brain were sampled at 6 time-points, starting at 30 minutes (n=3 animals/time-point). Brain was extracted at the same plasma sampling time-point from each animal. Both plasma and brain samples were deproteinated. Brain samples were weighted, homogenized and CFI-400945 was extracted. […] The dosing solution was normalized in a matched matrix (mouse plasma) and analyzed in triplicate in the same analytical batch as the incurred samples (Absorption Systems - Exton, PA).

ROS1 = ROS1 (Homo sapiens, UniProt P08922); test: Kinase activity screening (SelectScreen), ROS1; format: biochemical; details: ZLYTE
[13] = test system: MON, G401, BT-12, BT-16, DAOY and D283 cell lines; test: Senescence beta-galactosidase assay; format: cell-based, human; details: all cell lines (MON, G401, BT-12, BT-16, DAOY, D283); 100nM, 48 hours
Procedure: For each cell line, cells were seeded in 6-well plates in triplicates with 100,000 cells per well. Treatment medium was added the next day and incubated for 48 or 72 hrs. After incubation, cells were washed twice with 1X PBS and 1mL of the Fixation Buffer from the kit was added to each well of the plate and incubated at RT for 5 min. Cells were washed with 1X PBS and 1mL of staining solution from the kit was added to each well and incubated at 37°C without CO2 overnight. The next day, the cells were washed with 1X PBS and the numbers of blue stained cells (which indicate senescent cells) and unstained cells were counted in image J (www.imagej.nih.gov). The percentage of senescent cells was calculated.

G401 cells = test: Viability assay (Presto Blue), G401; format: cell-based; details: Homo sapiens, G-401, dose-response 1nM to 10μM
Procedure: as §1

BT-12 cells = test: Viability assay (Presto Blue), BT-12; format: cell-based; details: Homo sapiens, dose-response 1nM to 10μM
Procedure: as §1

[14] = H&E of xenografts, treated vs control, p-value<0.0001

Compound: COc1ccc2c(c1)[C@]1(C[C@H]1c1ccc3c(/C=C/c4ccc(CN5C[C@@H](C)O[C@@H](C)C5)cc4)n[nH]c3c1)C(=O)N2 [CFI-400945]
- IC50 (DAOY cells): 0.094 µM
- IC50 (MON cells): 5.13 µM
- % Inhibition (various kinases [1]; CDK4/cyclin D1): 10% and 9%
- % Inhibition (various kinases [1]; CDK4/cyclin D3): 5% and 8%
- % Inhibition (various kinases [2]): -1% and 2%
- % Inhibition (various kinases [3]; PIK3CA/PIK3R1 (p110 alpha/p85 alpha)): -9% and -6%
- % Inhibition (various kinases [3]; PIK3CA/PIK3R3 (p110 alpha/p55 gamma)): -2% and 6%
- % Inhibition (various kinases [4]): 21% and 24%
- % Inhibition (various kinases [5]): -11%
- % Inhibition (various kinases [6]): 6% and 9%
- % Inhibition (various kinases [7]): -2% and -5%
- % Inhibition (various kinases [8]): -2% and -8%
- % Inhibition (various kinases [9]; LRRK2 G2019S): 54% and 55%
- % Inhibition (various kinases [9]; LRRK2 G2019S FL): 54% and 50%
- % Inhibition (various kinases [10]): 12% and 7%
- growth of intracranial AT/RT tumors (luminescence) ([11]; 7.5 mg/kg/day oral for 21 days, p=0.0146): significantly reduced
- survival of treated animals ([11]; 7.5 mg/kg/day oral for 21 days, p=0.0477, log-rank test): extended
- nuclear area FC in tumor cells [11, 14]: 21.67
- nuclear diameter FC in tumor cells [11, 14]: 2.69
- IC50 (MUSK): 0.0487 µM
- Kp at 4 h ([12]; brain / plasma, fasted male CD-1 mice, triplicates, read-out: Average Raw B:P Ratio): ~0.08
- concentration at 4 h ([12]; plasma, plasma density assumed 1 g/mL, individual mice #355, 356, 357, read-out: Plasma Conc.): 498 ng/g
- % Inhibition Duplicate #1 (ROS1): 99%
- senescent cells (beta galactosidase) [13]: significant increase
- IC50 (G401 cells): 3.79 µM
- IC50 (BT-12 cells): 3.73 µM

Source: publication PMC5762315, “Inhibition of polo-like kinase 4 (PLK4): a new therapeutic option for rhabdoid tumors and pediatric medulloblastoma” (Oncotarget, 2017)
